The supplement of paper PMC11061612

What was measured:
[1] = system: LNZTA3WT4 (Low Grade Glioma); test: Bliss excess, mean over the matrix (fraction); higher = more synergy
Summary of the method: (§1)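 Cell lines grown in DMEM/F12 or RPMI with 10% FBS were plated in 1536-well plates and held 24 hours at 37°C, 5% CO2 before 72 hours of exposure to two-drug dose matrices, with DMSO typically at 0.2%. CellTiter-Glo 2.0 luminescence gave viability, which was converted to inhibition. Vehicle wells were set to 0 and blank wells to 1. Combination Emax is the second-highest inhibition in the matrix, and Bliss excess is the observed combination effect minus the expected EA + EB − EA·EB, where EA and EB are the single-agent effects.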

[2] = system: Detroit562 (Head and Neck Carcinoma); test: as above
Summary of the method: as §1

[3] = system: YAPC (Pancreatic Carcinoma); test: as above
Summary of the method: as §1

[4] = system: Hs-746T (Gastric Carcinoma); test: as above
Summary of the method: as §1

[5] = system: FTC-133 (Thyroid Gland Carcinoma); test: as above
Summary of the method: as §1

[6] = system: SW1573 (Lung Adenocarcinoma); test: combination Emax (second highest fraction inhibited in the dose matrix, 72 h); higher = more inhibition; extreme values may be limits of the assay
Summary of the method: as §1

[7] = system: EW-11 (Ewing's Sarcoma); test: as above
Summary of the method: as §1

[8] = system: CAL-72 (Osteosarcoma); test: as above
Summary of the method: as §1

[9] = system: LNZTA3WT4 (Low Grade Glioma); test: as above
Summary of the method: as §1

[10] = system: LCLC-97TM1 (Non-Small Cell Lung Carcinoma); test: as above
Summary of the method: as §1

[11] = system: NUGC-4 (Gastric Carcinoma); test: as above
Summary of the method: as §1

[12] = system: HuCCT1 (Biliary Tract Carcinoma); test: as above
Summary of the method: as §1

[13] = system: FTC-133 (Thyroid Gland Carcinoma); test: as above
Summary of the method: as §1

[14] = system: HeLa (Cervical Carcinoma); test: as above
Summary of the method: as §1

[15] = system: MHH-CALL-2 (B-Lymphoblastic Leukemia); test: as above
Summary of the method: as §1

[16] = system: L-428 (Hodgkin's Lymphoma); test: as above
Summary of the method: as §1

[17] = system: NCI-H2052 (Mesothelioma); test: as above
Summary of the method: as §1

[18] = system: BE2-M17 (Neuroblastoma); test: as above
Summary of the method: as §1

[19] = system: SNU-16 (Gastric Carcinoma); test: as above
Summary of the method: as §1

[20] = system: OE21 (Esophageal Squamous Cell Carcinoma); test: as above
Summary of the method: as §1
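For Bliss excess, mean over the matrix in this document: after 72 h of two-drug dosing.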

Row | Structure (SMILES) | Bliss excess [1] | Bliss excess [2] | Bliss excess [3] | Bliss excess [4] | Bliss excess [5] | combination Emax [6] | combination Emax [7] | combination Emax [8] | combination Emax [9] | combination Emax [10] | combination Emax [11] | combination Emax [12] | combination Emax [13] | combination Emax [14] | combination Emax [15] | combination Emax [16] | combination Emax [17] | combination Emax [18] | combination Emax [19] | combination Emax [20]
1 | CN(CCO)CC[C@H](CSc1ccccc1)Nc1ccc(S(=O)(=O)NC(=O)c2ccc(N3CCC([C@@H](O)c4ccccc4-c4ccc(Cl)cc4)CC3)cc2)cc1S(=O)(=O)C(F)(F)F [AZD4320] + C=CCn1c(=O)c2cnc(Nc3ccc(N4CCN(C)CC4)cc3)nc2n1-c1cccc(C(C)(C)O)n1 [AZD1775] (first compound max 1 µM, partner max 1 µM) | -0.0201 | -0.0067 | -0.0482 | -0.0054 | 0.0341 | 0.698 | 0.949 | 0.782 | 0.889 | 0.933 | 0.374 | 0.807 | 0.919 | 0.722 | 0.739 | 0.983 | 0.374 | 0.92 | 0.917 | 0.641
2 | CC(=O)c1c(C)c2cnc(Nc3ccc(N4CCNCC4)cn3)nc2n(C2CCCC2)c1=O [Palbociclib] + Cn1cnc2c(F)c(Nc3ccc(Br)cc3Cl)c(C(=O)NOCCO)cc21 [Selumetinib] (first compound max 10 µM, 7x7, partner max 10 µM) | -0.0459 | -0.0041 | 0.0156 | -0.0475 | -0.0403 | 0.164 | 0.168 | 0.361 | 0.333 | 0.64 | 0.392 | 0.556 | 0.202 | 0.104 | 0.31 | 0.395 | 0.189 | 0.606 | 0.771 | 0.54
3 | Cn1cnc2c(F)c(Nc3ccc(Br)cc3Cl)c(C(=O)NOCCO)cc21 [Selumetinib] + C=CCn1c(=O)c2cnc(Nc3ccc(N4CCN(C)CC4)cc3)nc2n1-c1cccc(C(C)(C)O)n1 [AZD1775] (first compound max 10 µM, partner max 1 µM) | -0.0443 | 0.0123 | 0.016 | -0.0275 | -0.0465 | 0.361 | 0.42 | 0.519 | 0.57 | 0.87 | 0.526 | 0.793 | 0.778 | 0.437 | 0.793 | 0.808 | 0.284 | 0.887 | 0.802 | 0.683
4 | NC1(C(=O)N[C@@H](CCO)c2ccc(Cl)cc2)CCN(c2ncnc3[nH]ccc23)CC1 [Capivasertib] + CC(C)n1c(=O)n(C)c2cnc3cc(F)c(-c4ccc(OCCCN5CCCCC5)nc4)cc3c21 [AZD1390] (first compound max 10 µM, 7x7, partner max 0.3 µM) | -0.0189 | -0.0122 | -0.0105 | -0.0445 | -0.0486 | 0.235 | 0.511 | 0.265 | 0.372 | 0.392 | 0.145 | 0.24 | 0.582 | 0.199 | 0.231 | 0.162 | 0.407 | 0.177 | 0.225 | 0.621
5 | CC1(C)CCC(CN2CCN(c3ccc(C(=O)NS(=O)(=O)c4ccc(NCC5CCOCC5)c([N+](=O)[O-])c4)c(Oc4cnc5[nH]ccc5c4)c3)CC2)=C(c2ccc(Cl)cc2)C1 [Venetoclax] + Cc1cc2ncnn2cc1Nc1ncc2c(n1)n(C1CCOCC1)c(=O)n2C [AZD7648] (first compound max 1 µM, 7x7, partner max 10 µM) | -0.0353 | -0.0205 | -0.0143 | -0.0131 | -0.0156 | 0.144 | 0.558 | 0.643 | 0.385 | 0.2 | 0.232 | 0.284 | 0.182 | 0.199 | 0.17 | 0.215 | 0.381 | 0.276 | 0.223 | 0.206
6 | COc1nnc2ccc(N3CCC(c4ccc(OCCN5CCN(C)C(=O)[C@H]5C)cc4)CC3)nn12 [AZD5153] + CCN(CCO)CCCOc1ccc2c(Nc3cc(CC(=O)Nc4cccc(F)c4)[nH]n3)ncnc2c1 [AZD2811] (first compound max 1 µM, 7x7, partner max 1 µM) | -0.0415 | -0.0804 | -0.0203 | -0.058 | -0.0014 | 0.504 | 0.452 | 0.503 | 0.457 | 0.764 | 0.557 | 0.498 | 0.678 | 0.433 | 0.5 | 0.845 | 0.395 | 0.644 | 0.868 | 0.693
7 | Cc1c2c(nn1C)CSCc1cc(n(C)n1)CSc1cc(c3ccccc3c1)OCCCc1c(C(=O)O)n(C)c3c-2c(Cl)ccc13 [AZD5991] + CC1(C)CCC(CN2CCN(c3ccc(C(=O)NS(=O)(=O)c4ccc(NCC5CCOCC5)c([N+](=O)[O-])c4)c(Oc4cnc5[nH]ccc5c4)c3)CC2)=C(c2ccc(Cl)cc2)C1 [Venetoclax] (first compound max 1 µM, 7x7, partner max 1 µM) | 0.0364 | -0.0119 | -0.0318 | -0.0882 | -0.0233 | 0.177 | 0.975 | 0.423 | 0.203 | 0.138 | 0.178 | 0.203 | 0.677 | 0.794 | 0.983 | 0.158 | 0.229 | 0.915 | 0.994 | 0.454
8 | CC1(C)CCC(CN2CCN(c3ccc(C(=O)NS(=O)(=O)c4ccc(NCC5CCOCC5)c([N+](=O)[O-])c4)c(Oc4cnc5[nH]ccc5c4)c3)CC2)=C(c2ccc(Cl)cc2)C1 [Venetoclax] + C[C@@H]1COCCN1C2=NC(=NC(=C2)C3(CC3)[S@](=N)(=O)C)C4=C5C=CNC5=NC=C4 [AZD6738] (first compound max 1 µM, 7x7, partner max 10 µM) | 0.0105 | -0.0505 | -0.0303 | -0.063 | -0.0014 | 0.351 | 0.781 | 0.902 | 0.789 | 0.85 | 0.534 | 0.664 | 0.779 | 0.563 | 0.863 | 0.779 | 0.431 | 0.939 | 0.973 | 0.828
9 | CC1(C)CCC(CN2CCN(c3ccc(C(=O)NS(=O)(=O)c4ccc(NCC5CCOCC5)c([N+](=O)[O-])c4)c(Oc4cnc5[nH]ccc5c4)c3)CC2)=C(c2ccc(Cl)cc2)C1 [Venetoclax] + CN(C)CCCOc1ccc(-c2ccc3ncc4c(c3c2)n(C2CCOCC2)c(=O)n4C)cn1 [AZD0156] (first compound max 1 µM, 7x7, partner max 1 µM) | -0.0469 | -0.0214 | -0.02 | -0.0043 | 0.0019 | 0.201 | 0.69 | 0.687 | 0.4 | 0.105 | 0.166 | 0.231 | 0.167 | 0.188 | 0.153 | 0.176 | 0.235 | 0.238 | 0.152 | 0.162
10 | Cc1c2c(nn1C)CSCc1cc(n(C)n1)CSc1cc(c3ccccc3c1)OCCCc1c(C(=O)O)n(C)c3c-2c(Cl)ccc13 [AZD5991] + C=CCn1c(=O)c2cnc(Nc3ccc(N4CCN(C)CC4)cc3)nc2n1-c1cccc(C(C)(C)O)n1 [AZD1775] (first compound max 1 µM, partner max 1 µM) | -0.0292 | 0.0261 | 0.0258 | -0.0096 | 0.0172 | 0.44 | 0.863 | 0.782 | 0.823 | 0.948 | 0.47 | 0.759 | 0.956 | 0.841 | 1 | 0.82 | 0.346 | 0.986 | 1 | 0.719
11 | CC(=O)Nc1cccc(-n2c(=O)n(C3CC3)c(=O)c3c(Nc4ccc(I)cc4F)n(C)c(=O)c(C)c32)c1 [Trametinib] + Cc1nc(-c2cn3c(n2)-c2ccc(-c4cnn(C(C)(C)C(N)=O)c4)cc2OCC3)n(C(C)C)n1 [Taselisib] (first compound max 1 µM, 7x7, partner max 10 µM) | 0.0829 | 0.108 | 0.246 | 0.0172 | -0.046 | 0.407 | 0.676 | 0.85 | 0.671 | 1 | 0.554 | 0.803 | 0.338 | 0.42 | 0.662 | 0.204 | 0.535 | 0.994 | 0.955 | 0.952
